Test results reported in ChEMBL document CHEMBL1201862, “PubChem BioAssay data set” (2004).
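Each compound was tested at five concentrations against cells in 96-well plates for 48 hours. The concentration for 50% growth inhibition is given as GI50.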 The source made the active and inactive calls. No stated cut-off is given here; in the data, active = GI50 up to about 1.1 µM and inactive = higher.

Key:
Test in all cases: growth of human tumour cells (NCI), 48 h
SK-MEL-28 = test system: SK-MEL-28
OVCAR-4 = test system: OVCAR-4
OVCAR-5 = test system: OVCAR-5
MDA-MB-231 = test system: MDA-MB-231
SF-268 = test system: SF-268
T47D = test system: T47D
HOP-62 = test system: HOP-62
CAKI-1 = test system: CAKI-1
U-251 = test system: U-251
786-0 = test system: 786-0
IGROV-1 = test system: IGROV-1
SF-295 = test system: SF-295
UO-31 = test system: UO-31
UACC-257 = test system: UACC-257
HT-29 = test system: HT-29
OVCAR-3 = test system: OVCAR-3
HOP-92 = test system: HOP-92
NCI-H522 = test system: NCI-H522
NCI/ADR-RES = test system: NCI/ADR-RES
PC-3 = test system: PC-3
TK-10 = test system: TK-10
SR = test system: SR
OVCAR-8 = test system: OVCAR-8
Hs-578T = test system: Hs-578T
CCRF-CEM = test system: CCRF-CEM
NCI-H460 = test system: NCI-H460
DU-145 = test system: DU-145
HCT-116 = test system: HCT-116
RXF 393 = test system: RXF 393
SK-OV-3 = test system: SK-OV-3
SF-539 = test system: SF-539
MOLT-4 = test system: MOLT-4
HCC 2998 = test system: HCC 2998
MCF7 = test system: MCF7
A498 = test system: A498
NCI-H226 = test system: NCI-H226
EKVX = test system: EKVX
LOX IMVI = test system: LOX IMVI
MDA-MB-435 = test system: MDA-MB-435
MDA-N = test system: MDA-N
SK-MEL-2 = test system: SK-MEL-2
ACHN = test system: ACHN
HCT-15 = test system: HCT-15
KM12 = test system: KM12
SW-620 = test system: SW-620
K562 = test system: K562
SK-MEL-5 = test system: SK-MEL-5
M14 = test system: M14
NCI-H23 = test system: NCI-H23
A549 = test system: A549
COLO 205 = test system: COLO 205
SNB-19 = test system: SNB-19
RPMI-8226 = test system: RPMI-8226
BT-549 = test system: BT-549
HL-60 = test system: HL-60
UACC-62 = test system: UACC-62
Malme-3M = test system: Malme-3M
SN12C = test system: SN12C
SNB-75 = test system: SNB-75

Measured: GI50

CN1CCN(Cn2nc(COc3ccc(Cl)cc3)n(/N=C/c3ccc(-c4ccc(Cl)cc4Cl)o3)c2=S)CC1
inactive: SK-MEL-28 13.9 µM | OVCAR-4 3.05 µM | OVCAR-5 6.46 µM | MDA-MB-231 7 µM | SF-268 3.95 µM | T47D 6.64 µM | HOP-62 5 µM | CAKI-1 14.2 µM | U-251 10.9 µM | 786-0 5.12 µM | IGROV-1 10.6 µM | SF-295 13.4 µM | UO-31 17.6 µM | UACC-257 17.6 µM | HT-29 3.7 µM | OVCAR-3 14.1 µM | HOP-92 8.47 µM | NCI-H522 3.72 µM | NCI/ADR-RES 20.5 µM | PC-3 11.2 µM | TK-10 14.5 µM | SR 2.63 µM | OVCAR-8 4.89 µM | Hs-578T 3.72 µM | NCI-H460 17.8 µM | DU-145 11.9 µM | HCT-116 13.4 µM | RXF 393 2.33 µM | SK-OV-3 15.7 µM | SF-539 26.4 µM | MOLT-4 16.7 µM | HCC 2998 3.18 µM | MCF7 8.32 µM | A498 18.3 µM | NCI-H226 19.6 µM | EKVX 14.5 µM | LOX IMVI 5.57 µM | MDA-MB-435 2.55 µM | MDA-N 4.02 µM | SK-MEL-2 18.3 µM | ACHN 19.7 µM | KM12 3.18 µM | SW-620 5.06 µM | K562 15.2 µM | SK-MEL-5 14.8 µM
18.6 µM: HCT-15
active: CCRF-CEM 0.247 µM

CCOC(=O)Cc1nnc2c(-c3ccccc3)nc3ccccc3n12
inactive: SK-MEL-28 > 100 µM | OVCAR-4 > 100 µM | OVCAR-5 63.5 µM | M14 > 100 µM | NCI-H23 43.3 µM | MDA-MB-231 19.2 µM | SF-268 20.6 µM | HOP-62 14.4 µM | U-251 22.4 µM | 786-0 > 100 µM | IGROV-1 85.7 µM | A549 > 100 µM | UO-31 71 µM | UACC-257 > 100 µM | HT-29 > 100 µM | OVCAR-3 14.6 µM | COLO 205 > 100 µM | HOP-92 41.6 µM | NCI/ADR-RES 90.6 µM | SNB-19 24.8 µM | PC-3 34.5 µM | TK-10 31.2 µM | SR > 100 µM | RPMI-8226 > 100 µM | CCRF-CEM > 100 µM | NCI-H460 > 100 µM | DU-145 33 µM | HCT-116 35.4 µM | RXF 393 20.6 µM | SK-OV-3 23.8 µM | SF-539 > 100 µM | MOLT-4 > 100 µM | BT-549 > 100 µM | HL-60 > 100 µM | HCC 2998 15.7 µM | UACC-62 44.7 µM | MCF7 85.3 µM | Malme-3M > 100 µM | A498 52.5 µM | SN12C 53.8 µM | NCI-H226 > 100 µM | EKVX 27.9 µM | LOX IMVI 53.7 µM | MDA-MB-435 > 100 µM | MDA-N > 100 µM | SK-MEL-2 28.1 µM | ACHN 19.8 µM | KM12 > 100 µM | SW-620 > 100 µM | K562 > 100 µM | SK-MEL-5 > 100 µM
56.2 µM: HCT-15

O=c1[nH]c(=O)n(C2OC(CO)C(O)C2O)cc1Oc1ccccc1 (configuration not stated)
inactive: SK-MEL-28 > 100 µM | OVCAR-4 > 100 µM | OVCAR-5 > 100 µM | M14 > 100 µM | NCI-H23 > 100 µM | MDA-MB-231 > 100 µM | SF-268 > 100 µM | T47D > 100 µM | HOP-62 > 100 µM | SNB-75 > 100 µM | CAKI-1 > 100 µM | U-251 > 100 µM | 786-0 > 100 µM | IGROV-1 > 100 µM | A549 > 100 µM | SF-295 > 100 µM | UACC-257 > 100 µM | HT-29 > 100 µM | OVCAR-3 > 100 µM | COLO 205 > 100 µM | HOP-92 > 100 µM | NCI-H522 > 100 µM | NCI/ADR-RES > 100 µM | SNB-19 > 100 µM | PC-3 > 100 µM | TK-10 > 100 µM | SR > 100 µM | OVCAR-8 > 100 µM | Hs-578T 98.9 µM | CCRF-CEM > 100 µM | NCI-H460 > 100 µM | DU-145 > 100 µM | HCT-116 > 100 µM | RXF 393 > 100 µM | SK-OV-3 > 100 µM | SF-539 > 100 µM | MOLT-4 > 100 µM | HL-60 > 100 µM | HCC 2998 > 100 µM | UACC-62 > 100 µM | MCF7 > 100 µM | Malme-3M > 100 µM | A498 > 100 µM | SN12C > 100 µM | NCI-H226 > 100 µM | EKVX > 100 µM | LOX IMVI > 100 µM | MDA-MB-435 > 100 µM | MDA-N > 100 µM | SK-MEL-2 > 100 µM | ACHN > 100 µM | KM12 > 100 µM | SW-620 > 100 µM | K562 > 100 µM | SK-MEL-5 > 100 µM
> 100 µM: HCT-15

c1csc(-c2nnc(C34CC5CC(CC(C5)C3)C4)o2)c1
inactive: SK-MEL-28 40.6 µM | OVCAR-4 34.2 µM | OVCAR-5 32.4 µM | M14 37.2 µM | NCI-H23 42.7 µM | MDA-MB-231 17.7 µM | SF-268 46.5 µM | T47D 26.9 µM | HOP-62 29.4 µM | SNB-75 32.5 µM | CAKI-1 87.1 µM | U-251 39.6 µM | 786-0 24.7 µM | IGROV-1 31.9 µM | A549 39.4 µM | SF-295 42.1 µM | UO-31 3.96 µM | HT-29 19 µM | OVCAR-3 13.6 µM | COLO 205 17.5 µM | HOP-92 29.1 µM | NCI-H522 36.8 µM | NCI/ADR-RES 21.7 µM | SNB-19 51.6 µM | PC-3 28 µM | TK-10 47.4 µM | SR 27.7 µM | OVCAR-8 37.6 µM | Hs-578T 31.6 µM | RPMI-8226 36.2 µM | CCRF-CEM 21.7 µM | NCI-H460 39.9 µM | DU-145 44.2 µM | HCT-116 32.2 µM | RXF 393 23.3 µM | SK-OV-3 53.1 µM | SF-539 19 µM | MOLT-4 24.7 µM | HL-60 15.1 µM | HCC 2998 35.4 µM | UACC-62 36.2 µM | Malme-3M 16.4 µM | A498 16.9 µM | SN12C 38 µM | NCI-H226 29.9 µM | EKVX 44.1 µM | LOX IMVI 23.6 µM | MDA-MB-435 36.5 µM | MDA-N 37.7 µM | SK-MEL-2 24.5 µM | ACHN 33.3 µM | KM12 52 µM | SW-620 45.8 µM | K562 34 µM | SK-MEL-5 17.1 µM
38.1 µM: HCT-15
active: MCF7 < 0.01 µM
